We go through seven compounds from patent publication US10869878B2, “Vaginal composition and use thereof” (SINGAPORE ZE&Z INTERNATIONAL PTE. LTD, priority 2014, dated 2020).

Read-outs that look alike come from different tables or passages of the source.

The test system of experiment [1] is L. jensenii. The following applies: medium with 0.5% (w/v) isomaltulose, pH 5.4.
Description: (§3) The following culture media containing different concentrations of preservatives were formulated with a basal medium containing 0.5% (w/v) isomaltulose, MRS medium without carbohydrate, and 5% (w/v) calf serum:
A. 0.1% (w/v) sodium benzoate
B. 0.2% (w/v) sodium benzoate
C. 0.02% (w/v) sodium dehydroacetate
D. 0.25% (w/v) sodium propionate group
E. 0.5% (w/v) sodium propionate group
(§4) F. 0.02% (w/v) sodium dehydroacetate+0.25% (w/v) sodium propionate group
(§5) G. 0.02% (w/v) sodium dehydroacetate+0.5% (w/v) sodium propionate group
(§6) The culture medium of each group was adjusted to pH 5.4, sterilized and packed in a test tube in a specification of 2 ml/tube.
(§7) (2) Inoculation and incubation of test strains: a bacterial suspension containing (1-5)×10^5 cfu/ml Candida glabrada isolate and a bacterial suspension containing (1-5)×10^5 cfu/ml L. jensenii were inoculated to each tube respectively. The Candida glabrada was aerobically incubated at 37° C. for 72 hrs, and the L. jensenii was microaerophilic incubated for 22 hrs.
For experiment [2], the system named is Candida glabrada isolate. Particulars: medium with 0.5% (w/v) isomaltulose, pH 5.4.
Description: as §3
A. 0.1% (w/v) sodium benzoate
B. 0.2% (w/v) sodium benzoate
C. 0.02% (w/v) sodium dehydroacetate
D. 0.25% (w/v) sodium propionate group
E. 0.5% (w/v) sodium propionate group
as §4, §5, §6, §7
Experiment [3] deals with BV-associated bacteria. Kind of experiment: Acid production by BV-associated bacteria in carbohydrate containing gels, slightly aerobic incubation (Experimental Example 1). In kind it is cell-based. Particulars: 1% (w/v) carbohydrate gel. The source says:
(1) Grouping in experiment: • (1) Isomaltulose group: containing 1% (w/v) isomaltulose, MRS basal medium without carbohydrate, 5% (w/v) calf serum, and 0.5% (w/v) xanthan gum, pH5.4; • (2) Isomaltose group: containing 1% (w/v) isomaltose, MRS basal medium without carbohydrate, 5% (w/v) calf serum, and 0.5% (w/v) xanthan gum, pH5.4; • (3) Sucrose group: containing 1% (w/v) sucrose, MRS basal medium without carbohydrate, 5% (w/v) calf serum, and 0.5% (w/v) xanthan gum, pH5.4; and • (4) Maltose group: containing 1% (w/v) maltose, MRS basal medium without carbohydrate, 5% (w/v) calf serum, and 0.5% (w/v) xanthan gum, pH5.4.
The gel of each group was formulated essentially following the method described in Composition Example 1, then sterilized, added with calf serum, and packed in test tubes in a specification of 5 g/tube, for late use.
(§1) (2) Secretion specimens from BV patients: vaginal secretions from 5 BV patients; and the criteria of inclusion are: • (1) conforming to the Amsel clinical criteria of BV diagnosis, wherein the pH value of the vaginal secretions was >4.6; • (2) after smearing, Gram staining and microscopical examination of vaginal secretions, Nugent score ≥7; and • (3) no other vaginosis and no antimicrobial agent is used within two weeks.
(3) After sampling, the secretion specimens from BV patients meeting the criteria of inclusion were immediately inoculated to the above 4 gels containing a carbohydrate, and slightly aerobically incubated at 37° C. for 46 hrs. The pH values of the gel matrices are detected with a precise pH test paper respectively at 14 hrs, 36 hrs, and 46 hrs.

In experiment [4] the test system is BV-associated bacteria. Kind of experiment: Acid production by BV-associated bacteria in semi-solid agars containing a carbohydrate, anaerobic incubation (Experimental Example 2). It counts as cell-based. The following applies: 24 hrs anaerobic, 37° C., 1.5% (w/v) carbohydrate, initial pH 5.4.
Description: (1) Grouping in experiment: • (1) Glucose group: containing 1.5% (w/v) glucose, MRS basal medium without carbohydrate, 5% (w/v) calf serum, and 0.45% (w/v) agar, pH5.4; • (2) Fructose group: containing 1.5% (w/v) fructose, MRS basal medium without carbohydrate, 5% (w/v) calf serum, and 0.45% (w/v) agar, pH5.4; • (3) Mannose group: containing 1.5% (w/v) mannose, MRS basal medium without carbohydrate, 5% (w/v) calf serum, and 0.45% (w/v) agar, pH5.4; • (4) Sucrose group: containing 1.5% (w/v) sucrose, MRS basal medium without carbohydrate, 5% (w/v) calf serum, and 0.45% (w/v) agar, pH5.4; • (5) Maltose group: containing 1.5% (w/v) maltose, MRS basal medium without carbohydrate, 5% (w/v) calf serum, and 0.45% (w/v) agar, pH5.4; • (6) Isomaltose group: containing 1.5% (w/v) isomaltose, MRS basal medium without carbohydrate, 5% (w/v) calf serum, and 0.45% (w/v) agar, pH5.4; and • (7) Isomaltulose group: containing 1.5% (w/v) isomaltulose, MRS basal medium without carbohydrate, 5% (w/v) calf serum, and 0.45% (w/v) agar, pH5.4.
The semi-solid agar of each group was formulated essentially following the method described in Composition Example 1, then sterilized, added with calf serum, and packed in test tubes in a specification of 5 g/tube, for late use.
as §1
(3) After sampling, the secretion specimens from BV patients meeting the criteria of inclusion were immediately inoculated to the above 7 aseptic semi-solid agars containing a carbohydrate at the bedside and anaerobically incubated at 37° C. for 24 hrs. The pH values of the agar matrices are detected with a precise pH test paper.

Experiment [5] concerns Lactobacilli in the secretions from BV patients. Kind of experiment: Selective promotion of carbohydrate containing gels for the growth of Lactobacilli, 16s rDNA identification (Experimental Example 4). In kind it is cell-based. The following applies: secretions from 20 BV patients; 1% (w/v) carbohydrate gel, 48 hrs slightly aerobic. As for the experimental part:
(§2) (3) After sampling, the vaginal secretion specimens from BV patients meeting the criteria of inclusion were immediately inoculated to the above 4 gels containing a carbohydrate, slightly aerobically incubated at 37° C. for 48 hrs, then transferred to a plate containing improved MRS with 1% (w/v) glucose and 5% (w/v) calf serum, slightly aerobically incubated for 20-48 hrs, isolated, purified and multiplied. The strain was identified by 16s rDNA sequencing.

Experiment [6] has as its system Bifidobacteria in the secretions from BV patients. Kind of experiment: Selective promotion of carbohydrate containing gels for the growth of Bifidobacteria (Experimental Example 4). The following applies: secretions from 20 BV patients; 1% (w/v) carbohydrate gel, 48 hrs slightly aerobic. It counts as cell-based. Here is the method:
as §2

Experiment [7] has as its system Gardnerella vaginalis in the secretions from BV patients. Kind of experiment: Selective promotion of carbohydrate containing gels for the growth of Gardnerella vaginalis (Experimental Example 4). In kind it is cell-based. Particulars: secretions from 20 BV patients; 1% (w/v) carbohydrate gel, 48 hrs slightly aerobic. Here is the method: as §2
Experiment [8] has as its system Canidia albicans. Kind of experiment: Metabolization of carbohydrates by Canidia albicans, residual carbohydrate by HPLC (Experimental Example 5). It counts as cell-based. The following applies: for residual carbohydrate content by HPLC: 72 hrs aerobic, 37° C., initial 1.5% (w/v) carbohydrate, pH 7.0, detection limit 0.05% (w/v). As for the experimental part:
(1) Grouping in experiment:
(2) Test strain: 2 strains of Canidia albicans, isolated from patients with candidal vaginitis.
The supernatant was separated by centrifugation, and packed in a specification of 5 ml/tube. The carbohydrate content in each tube was detected by HPLC.

Experiment [9] concerns BV. The following applies: cited from earlier work; for cure rate for BV: Livengood 2007.
Setting [10] is: 0.02% (w/v) sodium dehydroacetate.

For the compound `CC(=O)c1c([O-])cc(C)oc1=O.[Na+]` [sodium dehydroacetate], in experiment [1] (setting [10]), the “turbidity, Lactobacilli (0 hr)” value amounted to 0.5 and the “turbidity, Lactobacilli (22 hrs)” value is recorded as 1.4. Also, in [2] (setting [10]), the “turbidity, Candida (0 hr)” value is recorded as 0.5 and the “turbidity, Candida (72 hrs)” value is listed as 3.9.

In the case of `OC[C@H]1O[C@H](O[C@H]2[C@H](O)[C@@H](O)C(O)O[C@@H]2CO)[C@H](O)[C@@H](O)[C@@H]1O` (mixture of isomers) [Maltose, maltose], the “pH of the gel” value is on record as 5.4 in experiment [3] (Specimen 1, 0 hr (initial)); 3.8 in experiment [3] (Specimen 1, 14 hrs, slightly aerobic, 37° C., initial pH 5.4); ≤3.8 in [3] (Specimen 1, 46 hrs, slightly aerobic, 37° C., initial pH 5.4); 5.4 in [3] (Specimen 2, 0 hr (initial)); 4.1-4.4 in experiment [3] (Specimen 2, 14 hrs, slightly aerobic, 37° C., initial pH 5.4); ≤3.8 in [3] (Specimen 2, 46 hrs, slightly aerobic, 37° C., initial pH 5.4). Besides, the “pH of the gel” value in experiment [3] (Specimen 3, 0 hr (initial)) is recorded as 5.4; in experiment [3] (Specimen 3, 14 hrs, slightly aerobic, 37° C., initial pH 5.4), 4.1-4.4; in [3] (Specimen 3, 36 hrs, slightly aerobic, 37° C., initial pH 5.4), ≤3.8; in experiment [3] (Specimen 4, 0 hr (initial)), 5.4; in experiment [3] (Specimen 4, 14 hrs, slightly aerobic, 37° C., initial pH 5.4), 4.6; in experiment [3] (Specimen 4, 36 hrs, slightly aerobic, 37° C., initial pH 5.4) it was ≤3.8. Besides, the “pH of the gel” value is listed as 5.4 in experiment [3] (Specimen 5, 0 hr (initial)); 4.1-4.4 in experiment [3] (Specimen 5, 14 hrs, slightly aerobic, 37° C., initial pH 5.4); 4.1-4.4 in [3] (Specimen 5, 36 hrs, slightly aerobic, 37° C., initial pH 5.4). Moreover, the “pH of the semi-solid agar” value in [4] (Specimen 1), in [4] (Specimen 2), in experiment [4] (Specimen 3), in [4] (Specimen 4) and in experiment [4] (Specimen 5) was 3.8 each time. In addition, in experiment [5], the “samples positive for Lactobacilli, In total” value is reported as 8. Besides, the “total number of samples positive for L. amylovorus incubation” value in [5] is listed as 1. In addition, the “total number of samples positive for L. crispatus incubation” value in experiment [5] was 1. The “total number of samples positive for L. gasseri incubation” value in [5] worked out at 2. The “total number of samples positive for L. iners incubation” value in [5] is given as 0. In addition, the “total number of samples positive for L. jensenii incubation” value in [5] is 3. For the same compound, the “total number of samples positive for L. mucosae incubation” value in [5] is given as 1. Further, the “number of samples positive for Bifidobacterium bifidum” value in experiment [6] is recorded as 1 (8). Moreover, the “number of samples positive for Bifidobacterium breve” value in [6] was found to be 0. Moreover, the “number of samples positive for Bifidobacterium dentium” value in experiment [6] came out at 0. Besides, the “number of samples positive for Bifidobacterium longum” value in experiment [6] was 0. The “samples positive for Bifidobacteria, In total” value in [6] is recorded as 1. In addition, in experiment [7], the “number of samples positive for Gardnerella vaginalis” value is listed as 6 (2, 6, 7, 9, 15, 19). Further, the “samples positive for Gardnerella vaginalis, In total” value in [7] was determined as 6. The “residual carbohydrate content by HPLC” value is “Not detected^1” in experiment [8] (Canidia albicans 1) and “Not detected” in [8] (Canidia albicans 2). Further, in [8] (both strains of Canidia albicans, 72 hrs, initial 1.5% (w/v)), the residual concentration entry is listed as “below 0.05 % (w/v)”.

For the compound `O=C([O-])c1ccccc1.[Na+]` [sodium benzoate], the “turbidity, Lactobacilli (0 hr)” value in [1] (0.1% (w/v) sodium benzoate) is listed as 0.6; in [1] (0.2% (w/v) sodium benzoate), 0.7. Also, the “turbidity, Lactobacilli (22 hrs)” value in experiment [1] (0.1% (w/v) sodium benzoate) is recorded as 0.9; in [1] (0.2% (w/v) sodium benzoate), 0.7. Further, the “turbidity, Candida (0 hr)” value in experiment [2] (0.1% (w/v) sodium benzoate) and in [2] (0.2% (w/v) sodium benzoate) was 0.6 each time. The results for the “turbidity, Candida (72 hrs)” value in experiment [2] (0.1% (w/v) sodium benzoate) and in [2] (0.2% (w/v) sodium benzoate) were 7.1 and 2.1, respectively.

With `Cc1ncc([N+](=O)[O-])n1CCO` [metronidazole], the cure rate result in [9] (BV patients) is recorded as “about 60%”.

With `CCC(=O)[O-].[Na+]` [sodium propionate], in experiment [1] (0.25% (w/v) sodium propionate), the “turbidity, Lactobacilli (0 hr)” value amounted to 0.6 and the “turbidity, Lactobacilli (22 hrs)” value was determined as 5.2. Moreover, in experiment [1] (0.5% (w/v) sodium propionate), the “turbidity, Lactobacilli (0 hr)” value amounted to 0.4 and the “turbidity, Lactobacilli (22 hrs)” value was determined as 1.7. For the same compound, in experiment [2] (0.25% (w/v) sodium propionate), the “turbidity, Candida (0 hr)” value came to 0.5 and the “turbidity, Candida (72 hrs)” value is reported as >7.5. Besides, in experiment [2] (0.5% (w/v) sodium propionate), the “turbidity, Candida (0 hr)” value was 0.4 and the “turbidity, Candida (72 hrs)” value was 6.3.

`O=C(CO)[C@@H](O)[C@H](O)[C@H](O)CO` [Fructose, fructose]: the “pH of the semi-solid agar” value was 4.6 in experiment [4] (Specimen 1); 4.1 in [4] (Specimen 2); 3.8-4.1 in experiment [4] (Specimen 3); 4.1 in [4] (Specimen 4); 3.8 in [4] (Specimen 5).

For the compound `CCS(=O)(=O)CCn1c([N+](=O)[O-])cnc1C` [tinidazole], the “cure rate for BV” value is 37% in [9] (FDA 1998 guideline, both the clinical and microbiological cure standards met); 57% in [9] (cure if 3 of the 4 traditional Amsel clinical criteria are normal).
